The results in this text go back to PubChem BioAssay AID248 (DTP/NCI, 2004).

“And” between values parts separate entries of the source, which are not always exact repeats. Equal entries are not always repeated. Toxic doses and inconclusive results are not listed.

This test has as its system L1210 leukemia ip in BDF1 mice, survival T/C. Put plainly: NCI In Vivo Anticancer Drug Screen. Data for tumor model L1210 Leukemia (intraperitoneal) in B6D2F1 (BDF1) mice. As to conditions: endpoint: mean survival time, higher = longer survival. The method in brief:
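Survival endpoint. Drug-treated group vs vehicle group, expressed as T divided by C. Tumor passaged by transplantation.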

Setting [1] is: dose: 100.0 mg/kg/injection, schedule: Q04DX003 (ip), vehicle: saline with Tween-80.
[2] abbreviates: dose: 200.0 mg/kg/injection, schedule: Q04DX003 (ip), vehicle: saline with Tween-80.
[3] abbreviates: dose: 100.0 mg/kg/injection, schedule: Q01DX001 (ip), vehicle: saline.
Setting [4] is: dose: 200.0 mg/kg/injection, schedule: Q01DX001 (ip), vehicle: saline.
Where [5] appears, read: dose: 400.0 mg/kg/injection, schedule: Q01DX001 (ip), vehicle: saline.
[6] abbreviates: dose: 75.0 mg/kg/injection, schedule: Q01DX001 (ip), vehicle: saline.
The mark [7] stands for this setting: dose: 150.0 mg/kg/injection, schedule: Q01DX001 (ip), vehicle: saline.
Where [8] appears, read: dose: 100.0 mg/kg/injection, schedule: Q01DX001 (ip), vehicle: carboxymethylcellulose (CMC).
[9] abbreviates: dose: 200.0 mg/kg/injection, schedule: Q01DX001 (ip), vehicle: carboxymethylcellulose (CMC).

Regarding `CC(Oc1ccccc1)C(=O)NC(=S)Nc1cccc2ccccc12` (stereo not drawn), the T/C was 90 % of control and 91 % of control (dose: 50.0 mg/kg/injection, schedule: Q01DX009 (ip), vehicle: saline with Tween-80); 108 % of control (dose: 100.0 mg/kg/injection, schedule: Q01DX001 (ip), vehicle: saline with Tween-80); 100 % of control and 86 % of control (dose: 100.0 mg/kg/injection, schedule: Q01DX009 (ip), vehicle: saline with Tween-80); 108 % of control and 114 % of control (dose: 100.0 mg/kg/injection, schedule: Q04DX002 (ip), vehicle: saline with Tween-80); 108 % of control under setting [1]; 95 % of control (dose: 200.0 mg/kg/injection, schedule: Q01DX001 (ip), vehicle: saline with Tween-80). The T/C (dose: 200.0 mg/kg/injection, schedule: Q04DX002 (ip), vehicle: saline with Tween-80) was 93 % of control and 105 % of control; the T/C under setting [2] is 92 % of control; the T/C (dose: 400.0 mg/kg/injection, schedule: Q01DX001 (ip), vehicle: saline with Tween-80) was 93 % of control; the T/C (dose: 400.0 mg/kg/injection, schedule: Q04DX002 (ip), vehicle: saline with Tween-80) is 93 % of control and 88 % of control; the T/C (dose: 400.0 mg/kg/injection, schedule: Q04DX003 (ip), vehicle: saline with Tween-80) was 92 % of control.
For `CC(=O)OCC(NC(=O)N(CCCl)N=O)C(OC(C)=O)C(OC(C)=O)C(COC(C)=O)OC(C)=O` (stereo not drawn), the T/C (dose: 9.0 mg/kg/injection, schedule: Q01DX001 (ip), vehicle: saline + alcohol) is 266 % of control; the T/C (dose: 13.0 mg/kg/injection, schedule: Q01DX001 (ip), vehicle: saline + alcohol) is 179 % of control; the T/C (dose: 20.0 mg/kg/injection, schedule: Q01DX001 (ip), vehicle: saline + alcohol) is 282 % of control.
For the molecule `CCN(CC(=O)O)CC(=O)O`, the T/C under setting [3] is 93 % of control, the T/C under setting [4] was 112 % of control and the T/C under setting [5] is 96 % of control.
As to `O=C(NC/C=C/Br)NC1CCCc2ccccc21` (stereo not drawn), the T/C was 106 % of control (dose: 100.0 mg/kg/injection, schedule: Q01DX009 (ip), vehicle: other); 110 % of control (dose: 200.0 mg/kg/injection, schedule: Q01DX009 (ip), vehicle: other); 100 % of control (dose: 400.0 mg/kg/injection, schedule: Q01DX009 (ip), vehicle: other).
Take `OCC12C=CC(CC1)CC2`: the T/C reads like this: (dose: 75.0 mg/kg/injection, schedule: Q04DX002 (ip), vehicle: gum acacia) 92 % of control; (dose: 150.0 mg/kg/injection, schedule: Q04DX002 (ip), vehicle: gum acacia) 100 % of control; (dose: 300.0 mg/kg/injection, schedule: Q04DX002 (ip), vehicle: gum acacia) 92 % of control.
For the molecule `O=P(O)(O)c1cccc(Oc2ccccc2)c1`, the T/C under setting [6] was 100 % of control and the T/C under setting [7] is 100 % of control.
For the molecule `CCCNC(=O)c1cccc2c1-c1ccccc1C2=O`, the T/C was 93 % of control (dose: 100.0 mg/kg/injection, schedule: Q01DX001 (ip), vehicle: other); 93 % of control (dose: 200.0 mg/kg/injection, schedule: Q01DX001 (ip), vehicle: other); 87 % of control (dose: 400.0 mg/kg/injection, schedule: Q01DX001 (ip), vehicle: other).
For the molecule `N/C(=N\O)c1ccc(Cl)cc1`, the T/C by setting is: under setting [1], 104 % of control; under setting [2], 98 % of control.
`CC1(C)CCC(N)CC1`: the T/C under setting [6] is 93 % of control and the T/C under setting [7] is 95 % of control.
As to `CCCCn1cnc2c(=O)[nH]cnc21`, the T/C is, setting by setting: (dose: 66.12 mg/kg/injection, schedule: Q01DX Z (ip), vehicle: carboxymethylcellulose (CMC)) 93 % of control; (dose: 132.25 mg/kg/injection, schedule: Q01DX Z (ip), vehicle: carboxymethylcellulose (CMC)) 94 % of control; (dose: 132.25 mg/kg/injection, schedule: Q01DX Z (oral), vehicle: carboxymethylcellulose (CMC)) 100 % of control; (dose: 264.5 mg/kg/injection, schedule: Q01DX Z (ip), vehicle: carboxymethylcellulose (CMC)) 90 % of control; (dose: 264.5 mg/kg/injection, schedule: Q01DX Z (oral), vehicle: carboxymethylcellulose (CMC)) 96 % of control; (dose: 529.0 mg/kg/injection, schedule: Q01DX Z (oral), vehicle: carboxymethylcellulose (CMC)) 94 % of control.
As to `Cc1ccc(N2C(=O)CC(c3ccccc3)C2C(=O)O)cc1` (stereo not drawn), the T/C reads like this: (dose: 100.0 mg/kg/injection, schedule: Q04DX002 (ip), vehicle: Klucel (hydroxypropylcellulose) (HPC)) 100 % of control; (dose: 200.0 mg/kg/injection, schedule: Q04DX002 (ip), vehicle: Klucel (hydroxypropylcellulose) (HPC)) 103 % of control; (dose: 400.0 mg/kg/injection, schedule: Q04DX002 (ip), vehicle: Klucel (hydroxypropylcellulose) (HPC)) 103 % of control.
As for `CC(O)COCc1ccccc1` (stereo not drawn), the T/C is, setting by setting: (dose: 100.0 mg/kg/injection, schedule: Q01DX009 (ip), vehicle: saline) 103 % of control; (dose: 100.0 mg/kg/injection, schedule: Q04DX003 (ip), vehicle: saline) 94 % of control; (dose: 200.0 mg/kg/injection, schedule: Q01DX009 (ip), vehicle: saline) 94 % of control; (dose: 200.0 mg/kg/injection, schedule: Q04DX003 (ip), vehicle: saline) 94 % of control; (dose: 400.0 mg/kg/injection, schedule: Q01DX009 (ip), vehicle: saline) 97 % of control; (dose: 400.0 mg/kg/injection, schedule: Q04DX003 (ip), vehicle: saline) 90 % of control.
In the case of `O=c1[nH][nH]c2ccccc12`, the T/C is, setting by setting: (dose: 31.2 mg/kg/injection, schedule: Q01DX Z (ip), vehicle: other) 88 % of control; (dose: 125.0 mg/kg/injection, schedule: Q01DX Z (ip), vehicle: other) 88 % of control; (dose: 250.0 mg/kg/injection, schedule: Q01DX Z (ip), vehicle: other) 92 % of control.
Turning to `NS(=O)(=O)c1ccc(NC(=O)Nc2cccc(CNC(=O)Cc3ccc(Cl)cc3C(=O)O)c2)cc1`, the T/C is, setting by setting: (dose: 50.0 mg/kg/injection, schedule: Q01DX001 (ip), vehicle: Klucel (hydroxypropylcellulose) (HPC)) 104 % of control; (dose: 100.0 mg/kg/injection, schedule: Q01DX001 (ip), vehicle: Klucel (hydroxypropylcellulose) (HPC)) 109 % of control; (dose: 200.0 mg/kg/injection, schedule: Q01DX001 (ip), vehicle: Klucel (hydroxypropylcellulose) (HPC)) 90 % of control.
Turning to `CCCCN(C#N)CC(C)(C)[N+](=O)[O-]`, the T/C is, setting by setting: (dose: 111.0 mg/kg/injection, schedule: Q01DX Z (ip), vehicle: methylcellulose (MC)) 103 % of control; (dose: 166.0 mg/kg/injection, schedule: Q01DX Z (ip), vehicle: methylcellulose (MC)) 97 % of control; (dose: 250.0 mg/kg/injection, schedule: Q01DX Z (ip), vehicle: methylcellulose (MC)) 108 % of control.
`O=C1CC(=O)N(Cc2ccccc2)C(=O)N1`: the T/C reads like this: under setting [8], 86 % of control; under setting [9], 95 % of control.
With `OCCc1ccccc1O`, the T/C is, setting by setting: (dose: 50.0 mg/kg/injection, schedule: Q01DX001 (ip), vehicle: saline) 94 % of control; under setting [3], 94 % of control; under setting [4], 100 % of control; under setting [5], 100 % of control.
Regarding `CCCCCCN=C(N)c1ccc(NC(=O)c2ccc(C(=O)Nc3ccc(C(N)=NCCCCCC)cc3)cc2)cc1`, the T/C is 101 % of control (dose: 0.62 mg/kg/injection, schedule: Q01DX015 (ip), vehicle: methylcellulose (MC)); 95 % of control (dose: 1.25 mg/kg/injection, schedule: Q01DX015 (ip), vehicle: methylcellulose (MC)); 103 % of control (dose: 2.5 mg/kg/injection, schedule: Q01DX015 (ip), vehicle: methylcellulose (MC)); 112 % of control (dose: 5.0 mg/kg/injection, schedule: Q01DX015 (ip), vehicle: methylcellulose (MC)).
In the case of `COC(=O)c1cc(C)cc(O)c1C`, the T/C runs as follows: under setting [8], 104 % of control; under setting [9], 98 % of control; (dose: 400.0 mg/kg/injection, schedule: Q01DX001 (ip), vehicle: carboxymethylcellulose (CMC)) 104 % of control.
For the molecule `CC1=C(C)C2(Cl)C(Cl)=C(Cl)C1(Cl)C2(Cl)Cl`, the T/C was 96 % of control (dose: 50.0 mg/kg/injection, schedule: Q04DX003 (ip), vehicle: Klucel (hydroxypropylcellulose) (HPC)); 91 % of control (dose: 100.0 mg/kg/injection, schedule: Q04DX003 (ip), vehicle: Klucel (hydroxypropylcellulose) (HPC)); 92 % of control (dose: 200.0 mg/kg/injection, schedule: Q04DX003 (ip), vehicle: Klucel (hydroxypropylcellulose) (HPC)); 96 % of control (dose: 400.0 mg/kg/injection, schedule: Q04DX003 (ip), vehicle: Klucel (hydroxypropylcellulose) (HPC)).
